Values after ≈ are worked out from the molar mass of the structure shown.
How the values were obtained:
Assay type in all cases: biochemical
[1] = target: T1, AChE from electric eel (Electrophorus electricus) (Electrophorus electricus, UniProt O42275); assay: AChE-inhibition microtiter assay (Ellman, 96-well, with or without NBS oxidation); details: no oxidation, 4-PL fit, n = 4
T1 construct: purchased Sigma-Aldrich GmbH (Steinheim, Germany)
Procedure: Stock solutions (1 mg/mL) of NBS and ascorbic acid were each freshly prepared before the test and then diluted to 10 µg/mL and 100 µg/mL, respectively. The assay was performed with modifications according to Ellman’s method. OTPs, oxons, water, and methanol blanks (15 µL) were each mixed with 15 µL of NBS (10 µg/mL) in a 96-well plate. After an incubation at room temperature for 5 min, the reaction was stopped by adding 15 µL ascorbic acid (100 µg/mL). For the test setup without oxidation, OTPs, oxons, water, and methanol blanks (15 µL) were mixed with 30 µL water per well. Subsequently, 200 µL of a DTNB solution (0.15 mM), buffered in TRIS/HCl at a pH of 7.4, was added to each well of both test setups. Then, 20 µL of an AChE solution (0.5 U/mL), also buffered in TRIS/HCl at a pH of 7.4, was added. An incubation at 30 °C for 30 min without shaking followed. An ATCL solution (0.8 mM) was freshly prepared with water and 30 µL per well was added after incubation. During another incubation at room temperature for 30 min, ATCL was cleaved by AChE into thiocholine and acetic acid. Thiocholine reacts with DTNB to 2-nitro-5-thiobenzoate. The absorbance of the yellow-colored anion was photometrically measured at 405 nm (Sunrise Remote, Tecan Group AG, Männedorf, Schweiz).
Dilution series with eight concentrations of the three OTPs and related oxons (Tab. S1) were freshly prepared from stock solutions (1–10 mg/mL) in methanol. The OTPs and oxons were tested in duplicates with and without prior oxidation in two measurements as described in the “AChE-inhibition microtiter assay” section. Eight water and eight methanol blanks were tested per test setup (oxidation and no oxidation). Of these, two were tested without AChE and two without ATCL. The mean AChE activity (absorption at 405 nm, n = 4) was related to the specific inhibitor dose. The statistic program Prism (version 5.00, Graph Pad Software, San Diego, USA) was used to generate dose–response curves (4-PL fit) and to determine inhibition concentrations (ICs) for the three OTPs and related oxons. The 95% confidence intervals of the curves and the standard deviations of the mean AChE activity were also calculated. The lower boundary of the curves is fixed to 0 and the highest mean activity defines 100%.

[2] = target: T1, AChE from electric eel (Electrophorus electricus); assay: HPTLC-(Ox)-AChE-I assay, immersion method (plates immersed in AChE solution); details: without oxidation, OTPs 100 µL, oxons 10 µL applied, peak heights, n = 3
Procedure: (§1) LiChrospher 10 × 20 cm HPTLC Silica gel 60 F254s plates (Merck, Darmstadt, Germany) with a layer thickness of 170–190 µm and spherical silica particles with a size of 7 µm were used. The HPTLC plates were immersed twice in 2-propanol for 20 min, each time followed by a drying step at room temperature for 20 min. The plates then were pre-developed with methanol, dried for 20 min at room temperature, heated at 105 °C for 20 min, and stored in a desiccator for further use. The automatic TLC Sampler 4 (ATS 4, CAMAG AG, Muttenz, Switzerland) was used for sample application. The desired sample volumes were sprayed as 6-mm-wide bands onto the HPTLC plates with an application speed of 300 nL/s. The distances of the exterior bands from the edges of the plates were 15 mm. The distance from the bottom edge was 8 mm for all bands. Methanol was used as rinsing solvent. The following further application parameters were used: filling speed 15 µL/s, pre-dosage volume 200 nL, retraction volume 200 nL, rinsing vacuum time 4 s, filling vacuum time 0 s, rinsing cycles 2, and filling cycles 1. The development of the HPTLC plates was realized by the Automated Multiple Development 2 (AMD 2, CAMAG, Muttenz, Switzerland). The OTPs, their oxons, and environmental samples were separated with an eluent mixture of cyclohexane, dichloromethane, and acetone in different proportions and with increasing migration distances (Fig. S2). After each development step, a drying step of 3 min under vacuum followed. The final migration distance was 80 mm and the whole procedure took approximately 45 min. In addition, a simpler development process was used containing only the last step of the previous described method.
(§2) After chromatographic development, 10 mL of freshly prepared NBS (100 µg/mL) was sprayed onto the HPTLC plates with a glass reagent sprayer, followed by a 5-min incubation at room temperature. The following AChE-I assay was performed in parts according to Mendoza et al., Stütz et al., and Weins and Jork. AChE was buffered in TRIS/HCl at a pH of 7.8 (2.5 U/mL). The AChE solution was either sprayed onto the HPTLC plates with a glass reagent sprayer until the plates were evenly moist (approx. 10 mL) or the plates were immersed in the AChE solution using the Chromatogram Immersion Device 3 (CID 3, CAMAG, Muttenz, Switzerland). The immersion volume, speed, time, and depth were approx. 200 mL, 2.5 cm/s, 2 s, and approx. 85 mm, respectively. Afterward, the plates were placed separately in closed plastic boxes, which contained paper towels moistened with water to gain a saturated atmosphere. An incubation at 37 °C for 5 min followed. The substrate indoxyl acetate was freshly prepared in methanol at a concentration of 20 mg/mL and 5 mL was sprayed onto the HPTLC plates with a glass reagent sprayer. During 45-min incubation time at room temperature, AChE cleaves the substrate into indoxyl and acetate. The indoxyl reacts with oxygen to the blue indigo dye. When AChE was inhibited, no indigo was produced and the spot stayed white. The TLC Scanner 3 (CAMAG, Muttenz, Switzerland) was used to scan each track on the plates at 670 nm using the fluorescence mode without optical filter. The CAMAG-embedded software Wincats (Vers. 1.4.9) was used to provide chromatograms of each track and to evaluate inhibition zones.
Several amounts of an OTP mix and an oxon mix were applied on HPTLC plates (Tab. S2) and tested as described in the “Combination of HPTLC and AChE-inhibition assay” section. Three plates were used for each dilution series. The application volume was 10 µL for investigating OTPs with following oxidation and 100 µL for testing OTPs without following oxidation. The application volume for the oxons was 10 µL. They were tested without oxidation step also in triplicates. The peak heights were used for evaluation. Only peaks that have a signal-to-noise ratio ≥ 3 were considered in the evaluation. The height next to the respective peak defines the noise. […]

[3] = target: T1, AChE from electric eel (Electrophorus electricus); assay: HPTLC-(Ox)-AChE-I assay, spray method (AChE sprayed onto plates); details: spray method; without oxidation; OTPs 100 µL, oxons 10 µL applied; peak heights, n = 3
Procedure: as §1
as §2, with “The” for “After chromatographic development, 10 mL of freshly prepared NBS (100 µg/mL) was sprayed onto the HPTLC plates with a glass reagent sprayer, followed by a 5-min incubation at room temperature. The”
Several amounts of an OTP mix and an oxon mix were applied on HPTLC plates (Tab. S2) and tested as described in the “Combination of HPTLC and AChE-inhibition assay” section. Three plates were used for each dilution series. The application volume was 10 µL for investigating OTPs with following oxidation and 100 µL for testing OTPs without following oxidation. The application volume for the oxons was 10 µL. They were tested without oxidation step also in triplicates. The peak heights were used for evaluation. Only peaks that have a signal-to-noise ratio ≥ 3 were considered in the evaluation. The height next to the respective peak defines the noise.

T1 sequence (O42275 24-633): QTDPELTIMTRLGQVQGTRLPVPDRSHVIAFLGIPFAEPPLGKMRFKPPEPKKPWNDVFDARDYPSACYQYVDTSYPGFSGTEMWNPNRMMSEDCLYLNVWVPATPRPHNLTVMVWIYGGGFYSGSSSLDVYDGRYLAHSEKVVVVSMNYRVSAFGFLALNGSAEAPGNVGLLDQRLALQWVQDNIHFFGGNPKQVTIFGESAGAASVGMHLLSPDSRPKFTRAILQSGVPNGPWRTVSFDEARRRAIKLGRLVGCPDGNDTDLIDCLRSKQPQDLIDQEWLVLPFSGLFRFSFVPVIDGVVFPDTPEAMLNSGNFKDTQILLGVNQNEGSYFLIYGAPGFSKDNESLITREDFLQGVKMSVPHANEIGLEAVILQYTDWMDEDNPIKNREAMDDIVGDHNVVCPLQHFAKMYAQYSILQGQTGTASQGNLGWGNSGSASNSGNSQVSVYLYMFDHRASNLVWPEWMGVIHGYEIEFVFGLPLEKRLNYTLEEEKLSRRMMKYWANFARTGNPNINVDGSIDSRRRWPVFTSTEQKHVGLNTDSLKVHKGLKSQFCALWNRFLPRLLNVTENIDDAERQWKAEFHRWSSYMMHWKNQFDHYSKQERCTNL

CCOP(=O)(OCC)Oc1ccc([N+](=O)[O-])cc1 [Paraoxon, paraoxon]
IC80 ([1]; read-out: IC20 (inhibition concentration for 20% AChE activity), best fit): 0.071 µg/mL (≈ 0.258 µM) | IC20 ([1]; read-out: IC80 (inhibition concentration for 80% AChE activity), best fit): 0.016 µg/mL (≈ 0.0581 µM) | IC10 (10% AChE inhibition), best fit [2]: 0.60 ng/spot | IC20 (20% AChE inhibition), best fit [2]: 0.99 ng/spot | IC80 (80% AChE inhibition), best fit [2]: 5.4 ng/spot | IC10 (10% AChE inhibition), best fit [3]: 0.79 ng/spot | IC20 (20% AChE inhibition), best fit [3]: 1.2 ng/spot | IC80 (80% AChE inhibition), best fit [3]: 5.9 ng/spot
